The record followed here is BindingDB's records for doi:10.1038/sj.bjp.0702632 (Roche Bioscience, 1999).

Experiment [1] concerns the target 5-hydroxytryptamine receptor 2B (Homo sapiens, UniProt P41595).
Experiment [2] deals with T1, 5-hydroxytryptamine receptor 2C (Homo sapiens, UniProt P28335).
T1 sequence (P28335 whole entry): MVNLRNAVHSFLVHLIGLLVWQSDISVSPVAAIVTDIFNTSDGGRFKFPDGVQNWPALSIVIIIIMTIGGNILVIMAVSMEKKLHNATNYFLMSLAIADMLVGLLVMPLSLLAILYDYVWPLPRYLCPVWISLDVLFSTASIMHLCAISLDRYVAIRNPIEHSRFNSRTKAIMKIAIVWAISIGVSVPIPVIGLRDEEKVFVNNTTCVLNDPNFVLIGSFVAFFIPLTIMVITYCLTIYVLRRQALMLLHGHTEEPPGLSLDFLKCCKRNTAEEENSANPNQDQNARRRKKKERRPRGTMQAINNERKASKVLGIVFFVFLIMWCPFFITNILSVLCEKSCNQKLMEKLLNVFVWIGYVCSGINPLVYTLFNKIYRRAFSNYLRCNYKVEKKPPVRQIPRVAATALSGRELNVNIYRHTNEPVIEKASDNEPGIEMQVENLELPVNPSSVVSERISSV

Experiment [3] deals with T2, 5-hydroxytryptamine receptor 3A (Homo sapiens, UniProt P46098).
T2 sequence (P46098 whole entry): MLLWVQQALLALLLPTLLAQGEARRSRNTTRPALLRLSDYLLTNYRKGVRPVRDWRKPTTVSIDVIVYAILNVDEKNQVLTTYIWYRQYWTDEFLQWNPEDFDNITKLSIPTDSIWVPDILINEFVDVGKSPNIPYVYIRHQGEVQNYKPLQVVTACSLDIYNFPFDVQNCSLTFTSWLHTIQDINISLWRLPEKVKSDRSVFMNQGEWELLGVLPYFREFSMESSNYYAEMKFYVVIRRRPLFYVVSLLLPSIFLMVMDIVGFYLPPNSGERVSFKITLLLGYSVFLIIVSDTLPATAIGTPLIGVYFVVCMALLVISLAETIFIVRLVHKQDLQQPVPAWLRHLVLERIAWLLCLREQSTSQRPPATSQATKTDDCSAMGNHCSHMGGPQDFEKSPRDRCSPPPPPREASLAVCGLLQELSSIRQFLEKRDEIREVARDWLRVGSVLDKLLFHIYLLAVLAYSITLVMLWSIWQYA

Experiment [4] concerns the target 5-hydroxytryptamine receptor 5A (Homo sapiens, UniProt P47898).
In experiment [5] the target is 5-hydroxytryptamine receptor 6 (Homo sapiens, UniProt P50406).
Chain of 5-hydroxytryptamine receptor 6 (P50406 whole entry): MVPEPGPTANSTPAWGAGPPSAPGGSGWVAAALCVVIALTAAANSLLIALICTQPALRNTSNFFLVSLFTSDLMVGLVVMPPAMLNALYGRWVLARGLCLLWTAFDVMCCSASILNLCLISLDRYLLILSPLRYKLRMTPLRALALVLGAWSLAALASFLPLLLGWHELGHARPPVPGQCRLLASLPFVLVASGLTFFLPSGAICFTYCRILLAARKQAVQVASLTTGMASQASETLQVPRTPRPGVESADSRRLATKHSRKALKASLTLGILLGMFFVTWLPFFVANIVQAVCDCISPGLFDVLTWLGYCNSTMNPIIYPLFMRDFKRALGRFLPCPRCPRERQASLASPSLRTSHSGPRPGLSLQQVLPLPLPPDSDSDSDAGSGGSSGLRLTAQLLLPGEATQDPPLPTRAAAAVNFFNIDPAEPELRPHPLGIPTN
The target in experiment [6] is 5-hydroxytryptamine receptor 2A (Homo sapiens, UniProt P28223).
Chain of 5-hydroxytryptamine receptor 2A (P28223 whole entry): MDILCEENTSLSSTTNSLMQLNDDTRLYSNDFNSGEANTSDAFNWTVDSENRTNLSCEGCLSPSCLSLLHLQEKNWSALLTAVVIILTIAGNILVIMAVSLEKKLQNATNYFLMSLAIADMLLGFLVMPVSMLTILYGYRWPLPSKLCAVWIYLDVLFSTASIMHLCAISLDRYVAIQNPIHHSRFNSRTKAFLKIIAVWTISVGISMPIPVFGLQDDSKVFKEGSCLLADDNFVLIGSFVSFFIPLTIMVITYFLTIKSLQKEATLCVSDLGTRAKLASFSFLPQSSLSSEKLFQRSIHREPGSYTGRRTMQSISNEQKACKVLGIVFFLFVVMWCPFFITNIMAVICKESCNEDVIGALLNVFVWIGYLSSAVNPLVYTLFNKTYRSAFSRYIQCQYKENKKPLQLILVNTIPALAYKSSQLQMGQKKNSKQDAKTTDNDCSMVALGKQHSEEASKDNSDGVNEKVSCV

Structures are written as SMILES.

Chain of 5-hydroxytryptamine receptor 2B (P41595 whole entry): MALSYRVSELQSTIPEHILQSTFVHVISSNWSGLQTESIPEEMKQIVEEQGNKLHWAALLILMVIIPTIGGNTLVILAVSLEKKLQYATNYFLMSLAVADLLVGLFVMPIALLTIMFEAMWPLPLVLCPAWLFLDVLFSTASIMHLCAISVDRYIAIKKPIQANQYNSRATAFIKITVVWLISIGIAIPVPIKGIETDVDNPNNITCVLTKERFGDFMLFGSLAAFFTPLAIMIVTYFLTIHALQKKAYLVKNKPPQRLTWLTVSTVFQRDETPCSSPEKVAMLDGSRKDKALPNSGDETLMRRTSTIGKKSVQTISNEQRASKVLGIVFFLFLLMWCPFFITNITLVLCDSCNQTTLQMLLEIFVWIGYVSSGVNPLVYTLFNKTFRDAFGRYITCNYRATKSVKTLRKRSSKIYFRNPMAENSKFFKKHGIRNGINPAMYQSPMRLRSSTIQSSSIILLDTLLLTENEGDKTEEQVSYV
Chain of 5-hydroxytryptamine receptor 5A (P47898 whole entry): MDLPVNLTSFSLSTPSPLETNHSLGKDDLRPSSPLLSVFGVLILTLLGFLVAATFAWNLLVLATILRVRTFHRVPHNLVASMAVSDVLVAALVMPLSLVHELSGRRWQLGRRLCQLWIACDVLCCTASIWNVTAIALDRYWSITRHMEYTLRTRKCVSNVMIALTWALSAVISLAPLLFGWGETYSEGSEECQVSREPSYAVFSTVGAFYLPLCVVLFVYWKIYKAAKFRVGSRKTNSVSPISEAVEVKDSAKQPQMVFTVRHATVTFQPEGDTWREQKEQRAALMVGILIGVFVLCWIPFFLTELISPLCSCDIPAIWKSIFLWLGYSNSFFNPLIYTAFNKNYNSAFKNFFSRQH

For the molecule `Cc1nc2sccn2c(=O)c1CCN1CCC(=C(c2ccc(F)cc2)c2ccc(F)cc2)CC1`, the Ki in experiment [1] was determined as 1 nM.
On the same count and under the same terms, the same measure for `COc1ccc(CC2NCCc3c2[nH]c2ccccc32)cc1OC` (stereo not drawn) [LY-23728]: 1 nM.
On to `CC(C)c1cc(-c2ccc(F)c3ccccc23)nc(N)n1` [RS-127445], for which the inhibition constant Ki amounted to 0.32 nM in experiment [1]; 398 nM in experiment [2]; 1000 nM in experiment [3]; 1000 nM in experiment [4]; 1000 nM in experiment [5]; 501 nM in experiment [6].

By Ki is commonly meant the equilibrium dissociation constant of an inhibitor or competing ligand from its target. Read a low Ki as higher affinity.
